Measurements taken from ChEMBL document CHEMBL5131402, “Design, synthesis, and biological evaluation of phenyl thiazole-based AR-V7 degraders” (Bioorg Med Chem Lett, 2022).
Values after ≈ are worked out from the molar mass of the structure shown.

Assays:
[1] = test system: CWR22R; assay: Antiproliferative activity against human 22Rv1 cells expressing […]; format: functional, cell-based
[2] = target: von Hippel-Lindau disease tumor suppressor/Androgen receptor (Homo sapiens, UniProt P10275+P40337); assay: PROTAC activity at VHL/AR-V7 (unknown origin) expressed in human 22Rv1 cells assessed as induction of AR-V7 degradation; format: cell-based
von Hippel-Lindau disease tumor suppressor/Androgen receptor, sequence (P10275 whole entry, looked up, change not shown): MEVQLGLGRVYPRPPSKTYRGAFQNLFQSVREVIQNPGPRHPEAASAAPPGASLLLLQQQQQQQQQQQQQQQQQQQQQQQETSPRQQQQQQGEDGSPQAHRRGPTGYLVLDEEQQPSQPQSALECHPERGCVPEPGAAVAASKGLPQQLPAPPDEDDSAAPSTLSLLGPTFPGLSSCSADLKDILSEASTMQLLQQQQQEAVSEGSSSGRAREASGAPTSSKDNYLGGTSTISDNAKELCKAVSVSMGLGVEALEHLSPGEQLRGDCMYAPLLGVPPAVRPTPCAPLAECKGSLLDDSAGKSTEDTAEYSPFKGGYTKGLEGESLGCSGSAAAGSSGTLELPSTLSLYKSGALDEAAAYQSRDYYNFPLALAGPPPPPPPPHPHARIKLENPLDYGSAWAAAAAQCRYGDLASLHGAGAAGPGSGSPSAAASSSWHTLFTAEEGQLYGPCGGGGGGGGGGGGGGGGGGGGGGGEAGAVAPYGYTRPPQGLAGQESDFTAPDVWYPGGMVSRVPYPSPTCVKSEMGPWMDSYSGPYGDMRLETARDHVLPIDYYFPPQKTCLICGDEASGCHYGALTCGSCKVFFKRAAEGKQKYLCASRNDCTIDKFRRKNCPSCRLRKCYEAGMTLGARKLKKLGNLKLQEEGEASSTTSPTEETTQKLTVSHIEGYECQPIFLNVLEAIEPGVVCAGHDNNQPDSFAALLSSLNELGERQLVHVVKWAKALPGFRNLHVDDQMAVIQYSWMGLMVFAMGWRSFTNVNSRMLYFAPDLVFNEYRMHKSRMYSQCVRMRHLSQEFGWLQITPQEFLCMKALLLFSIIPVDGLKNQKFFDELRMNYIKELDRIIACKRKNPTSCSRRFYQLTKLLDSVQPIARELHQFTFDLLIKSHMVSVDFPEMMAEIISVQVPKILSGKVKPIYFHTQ
von Hippel-Lindau disease tumor suppressor/Androgen receptor, sequence (P40337 whole entry, looked up, change not shown): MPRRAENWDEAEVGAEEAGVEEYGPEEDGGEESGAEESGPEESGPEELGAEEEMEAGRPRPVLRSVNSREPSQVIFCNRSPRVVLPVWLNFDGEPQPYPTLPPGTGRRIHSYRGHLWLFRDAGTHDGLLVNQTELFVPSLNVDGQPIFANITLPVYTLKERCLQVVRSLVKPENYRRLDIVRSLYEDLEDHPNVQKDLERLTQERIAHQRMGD

[3] = Aqueous solubility of the compound at pH.7.4; format: physicochemical
[4] = Metabolic stability in mouse liver microsomes assessed as parent compound remaining measured at 1 hr; format: ADME, Microsome; settings: read-out: Stability
[5] = test system: von Hippel-Lindau disease tumor suppressor/Androgen receptor (Homo sapiens), P10275+P40337 [UNDEFINED MUTATION]; assay: PROTAC activity at VHL/AR-V7 (unknown origin) expressed in human 22Rv1 cells assessed as induction of AR-V7 degradation my measuring maximum efficacy relative to control; format: cell-based
von Hippel-Lindau disease tumor suppressor/Androgen receptor (Homo sapiens), P10275+P40337 [UNDEFINED MUTATION], sequence (P10275 whole entry, looked up, stated change not applied): as the sequence (P10275 whole entry, looked up, change not shown) above
von Hippel-Lindau disease tumor suppressor/Androgen receptor (Homo sapiens), P10275+P40337 [UNDEFINED MUTATION], sequence (P40337 whole entry, looked up, stated change not applied): as the sequence (P40337 whole entry, looked up, change not shown) above

[6] = test system: CWR22R; assay: Antiproliferative activity against human 22Rv1 cells expressing […] assessed as maximum efficacy relative to control; format: functional
[7] = test system: CWR22R; assay: Antiproliferative activity against human 22Rv1 cells expressing […] assessed as inhibition of cell growth at 10 uM relative to control; format: functional
[8] = Cmax in CD1 mouse at 1 mg/kg, iv administered as single dose; format: ADME, organism-based; parameters: dose 1 mg/kg, route iv; settings: in vivo
[9] = Terminal half life in CD1 mouse at 1 mg/kg, iv administered as single dose; format: ADME, organism-based; settings: in vivo, read-out: beta t1/2 (converted)
[10] = AUC (0 to infinity) in CD1 mouse at 1 mg/kg, iv administered as single dose; format: ADME, organism-based; parameters: time infinity, dose 1 mg/kg, route iv; settings: in vivo
[11] = Tmax in CD1 mouse at 30 mg/kg, po administered as single dose; format: ADME, organism-based; settings: in vivo
[12] = Cmax in CD1 mouse at 30 mg/kg, po administered as single dose; format: ADME, organism-based; parameters: dose 30 mg/kg, route po; settings: in vivo
[13] = Terminal half life in CD1 mouse at 30 mg/kg, po administered as single dose; format: ADME, organism-based; settings: in vivo, read-out: beta t1/2 (converted)
[14] = AUC (0 to infinity) in CD1 mouse at 30 mg/kg, po administered as single dose; format: ADME, organism-based; parameters: time infinity, dose 30 mg/kg, route po; settings: in vivo
[15] = Oral bioavailability in CD1 mouse at 30 mg/kg administered as single dose; format: ADME, organism-based; settings: in vivo
[16] = Tmax in CD1 mouse at 100 mg/kg, po administered as single dose; format: ADME, organism-based; settings: in vivo
[17] = Cmax in CD1 mouse at 100 mg/kg, po administered as single dose; format: ADME, organism-based; parameters: dose 100 mg/kg, route po; settings: in vivo
[18] = Terminal half life in CD1 mouse at 100 mg/kg, po administered as single dose; format: ADME, organism-based; settings: in vivo, read-out: beta t1/2 (converted)
[19] = AUC (0 to infinity) in CD1 mouse at 100 mg/kg, po administered as single dose; format: ADME, organism-based; parameters: time infinity, dose 100 mg/kg, route po; settings: in vivo
[20] = Oral bioavailability in CD1 mouse at 100 mg/kg administered as single dose; format: ADME, organism-based; settings: in vivo

| Structure (SMILES) | EC50 [1] [µM] | DC50 [2] [µM] | other results |
| --- | --- | --- | --- |
| Cc1ncsc1-c1ccc([C@H](C)NC(=O)[C@@H]2C[C@@H](O)CN2C(=O)[C@@H](NC(=O)CCCCOc2ccc(-c3csc(N4CCOC(C)C4)n3)cc2)C(C)(C)C)cc1 (stereo partly specified) | > 10 |  |  |
| Cc1ncsc1-c1ccc([C@H](C)NC(=O)[C@@H]2C[C@@H](O)CN2C(=O)[C@@H](NC(=O)CCCCOc2ccc(-c3csc(N4CCC5(COC5)C4)n3)cc2)C(C)(C)C)cc1 | > 10 |  |  |
| Cc1ncsc1-c1ccc([C@H](C)NC(=O)[C@@H]2C[C@@H](O)CN2C(=O)[C@@H](NC(=O)COc2ccc(-c3csc(N4CCOCC4)n3)cc2)C(C)(C)C)cc1 |  | > 10 |  |
| CCC1COCCN1c1nc(-c2ccc(OCCCCC(=O)N[C@H](C(=O)N3C[C@H](O)C[C@H]3C(=O)N[C@@H](C)c3ccc(-c4scnc4C)cc3)C(C)(C)C)cc2)cs1 (stereo partly specified) | > 10 |  |  |
| Cc1ncsc1-c1ccc([C@H](C)NC(=O)[C@@H]2C[C@@H](O)CN2C(=O)[C@@H](NC(=O)CCCOc2ccc(-c3csc(N4CCOCC4)n3)cc2)C(C)(C)C)cc1 | 1.36 | 0.35 | solubility [3]: < 2 µM; remaining at 1 h [4]: 5%; Emax [5]: 53%; Emax [6]: 90% |
| Cc1ncsc1-c1ccc([C@H](C)NC(=O)[C@@H]2C[C@@H](O)CN2C(=O)[C@@H](NC(=O)CCCCOc2ccc(-c3csc(N4CC(C)OCC4C)n3)cc2)C(C)(C)C)cc1 (stereo partly specified) | > 10 |  |  |
| Cc1ncsc1-c1ccc(CNC(=O)[C@@H]2C[C@@H](O)CN2C(=O)[C@@H](NC(=O)C2(F)CC2)C(C)(C)C)c(OCCOc2ccc(-c3csc(N4CCOCC4)n3)cc2)c1 | > 10 |  |  |
| Cc1ncsc1-c1ccc([C@H](C)NC(=O)[C@@H]2C[C@@H](O)CN2C(=O)[C@@H](NC(=O)CCCCOc2ccc(-c3csc(N4CCOCC4)n3)cc2[N+](=O)[O-])C(C)(C)C)cc1 | > 10 |  |  |
| Cc1ncsc1-c1ccc([C@H](C)NC(=O)[C@@H]2C[C@@H](O)CN2C(=O)[C@@H](NC(=O)CCCCOc2ccc(-c3csc(N4CCOCC4)n3)c(F)c2)C(C)(C)C)cc1 | > 10 |  |  |
| Cc1ncsc1-c1ccc([C@H](C)NC(=O)[C@@H]2C[C@@H](O)CN2C(=O)[C@@H](NC(=O)CCCCOc2ccc(-c3csc(N4CC(C)OC(C)C4)n3)cc2)C(C)(C)C)cc1 (stereo partly specified) | > 10 |  |  |
| Cc1ncsc1-c1ccc(CNC(=O)[C@@H]2C[C@@H](O)CN2C(=O)[C@@H](NC(=O)C2(F)CC2)C(C)(C)C)c(OCCCCCCOc2ccc(-c3csc(N4CCOCC4)n3)cc2)c1 | > 10 |  |  |
| Cc1ncsc1-c1ccc([C@H](C)NC(=O)[C@@H]2C[C@@H](O)CN2C(=O)[C@@H](NC(=O)CCCCOc2ccc(-c3csc(N4CCOC(C)(C)C4)n3)cc2)C(C)(C)C)cc1 |  | > 10 | inhibition at 10 µM [7]: 66% |
| c1ccc(-c2csc(N3CCOCC3)n2)cc1 |  | > 10 |  |
| Cc1ncsc1-c1ccc(CNC(=O)[C@@H]2C[C@@H](O)CN2C(=O)[C@@H](NC(=O)C2(F)CC2)C(C)(C)C)c(OCCCCCCCCOc2ccc(-c3csc(N4CCOCC4)n3)cc2)c1 | > 10 |  |  |
| Cc1ncsc1-c1ccc([C@H](C)NC(=O)[C@@H]2C[C@@H](O)CN2C(=O)[C@@H](NC(=O)CCCCOc2ccc(-c3csc(N4CC5(CCOCC5)C4)n3)cc2)C(C)(C)C)cc1 | > 10 |  |  |
| Cc1ncsc1-c1ccc([C@H](C)NC(=O)[C@@H]2C[C@@H](O)CN2C(=O)[C@@H](NC(=O)c2ccc(-c3csc(N4CCOCC4)n3)cc2)C(C)(C)C)cc1 |  | > 10 |  |
| Cc1ncsc1-c1ccc(CNC(=O)[C@@H]2C[C@@H](O)CN2C(=O)[C@@H](NC(=O)C2(F)CC2)C(C)(C)C)c(OCCCCOc2ccc(-c3csc(N4CCOCC4)n3)cc2)c1 | > 10 |  |  |
| Cc1ncsc1-c1ccc([C@H](C)NC(=O)[C@@H]2C[C@@H](O)CN2C(=O)[C@@H](NC(=O)CCCCOc2ccc(-c3csc(N4CCOCC4)n3)cc2)C(C)(C)C)cc1 | 0.88 | 0.32 | Cmax [8]: 2900 ng/mL; half-life [9]: 54 min; AUC(0-inf) [10]: 1290 ng·h/mL; Tmax [11]: 45 min; Cmax [12]: 773 ng/mL; half-life [13]: 60 min; AUC(0-inf) [14]: 1980 ng·h/mL; bioavailability [15]: 5%; Tmax [16]: 79.8 min; Cmax [17]: 1810 ng/mL; half-life [18]: 42 min; AUC(0-inf) [19]: 5950 ng·h/mL; bioavailability [20]: 4.6%; solubility [3]: 3.5 µM (≈ 2.76 µg/mL); remaining at 1 h [4]: 6%; Emax [5]: 67%; Emax [6]: 94% |
| Cc1cc(OCCCCC(=O)N[C@H](C(=O)N2C[C@H](O)C[C@H]2C(=O)N[C@@H](C)c2ccc(-c3scnc3C)cc2)C(C)(C)C)ccc1-c1csc(N2CCOCC2)n1 | > 10 |  |  |
| COc1c(-c2csc(N3CCOCC3)n2)ccc(OCCCCC(=O)N[C@H](C(=O)N2C[C@H](O)C[C@H]2C(=O)N[C@@H](C)c2ccc(-c3scnc3C)cc2)C(C)(C)C)c1F | > 10 | > 10 |  |
| Cc1ncsc1-c1ccc([C@H](C)NC(=O)[C@@H]2C[C@@H](O)CN2C(=O)[C@@H](NC(=O)CCOc2ccc(-c3csc(N4CCOCC4)n3)cc2)C(C)(C)C)cc1 |  | > 10 |  |
| Cc1ncsc1-c1ccc([C@H](C)NC(=O)[C@@H]2C[C@@H](O)CN2C(=O)[C@@H](NC(=O)CCCCOc2ccc(-c3csc(N4CC5(COC5)C4)n3)cc2)C(C)(C)C)cc1 | > 10 |  |  |
| Cc1ncsc1-c1ccc(CNC(=O)[C@@H]2C[C@@H](O)CN2C(=O)[C@@H](NC(=O)C2(F)CC2)C(C)(C)C)c(OCCCOc2ccc(-c3csc(N4CCOCC4)n3)cc2)c1 | > 10 |  |  |
| Cc1ncsc1-c1ccc([C@H](C)NC(=O)[C@@H]2C[C@@H](O)CN2C(=O)[C@@H](NC(=O)CCCCOc2ccc(-c3csc(N4CCOCC4)n3)cc2N)C(C)(C)C)cc1 | > 10 |  |  |
| Cc1ncsc1-c1ccc([C@H](C)NC(=O)[C@@H]2C[C@@H](O)CN2C(=O)[C@@H](NC(=O)CCCCCOc2ccc(-c3csc(N4CCOCC4)n3)cc2)C(C)(C)C)cc1 |  | 1 | Emax [5]: 60% |
| Cc1ncsc1-c1ccc([C@H](C)NC(=O)[C@@H]2C[C@@H](O)CN2C(=O)[C@@H](NC(=O)CCCCOc2ccc(-c3csc(N4CCOCC4)n3)cc2F)C(C)(C)C)cc1 | > 10 |  |  |
| Cc1ncsc1-c1ccc([C@H](C)NC(=O)[C@@H]2C[C@@H](O)CN2C(=O)[C@@H](NC(=O)CCCCOc2ccc(-c3csc(N4CC5CCC(C4)O5)n3)cc2)C(C)(C)C)cc1 | > 10 | > 10 |  |
| Cc1ncsc1-c1ccc([C@H](C)NC(=O)[C@@H]2C[C@@H](O)CN2C(=O)[C@@H](NC(=O)CCCCOc2ccc(-c3csc(N4CCOCC4C)n3)cc2)C(C)(C)C)cc1 (stereo partly specified) | > 10 | > 10 |  |
